Results as given in patent US4470840A, “1-Triacontanol plant growth stimulator formulations” (Biochemical Research Corporation, priority 1981, dated 1984).

Legend:
[1] = test system: Hybrid Sweet Corn Seedlings (cv. Silver Queen); experiment: Lengths of stems and total plant length of seedlings sprayed Day 7; assay type: in vivo; conditions: T = 1-triacontanol 0.1 mg/liter
[2] = test system: Pea Seedlings (cv. Dark Skin); experiment: Greenhouse trial: dry weight of seedlings; assay type: in vivo, peas; conditions: 1-triacontanol 0.1 mg/liter; for Dry wt.: sum of four plants
Description: In general, greenhouse trials were conducted as follows: eight to twelve seeds were sown per pot in Peat-Lite® Mix and received an average of 100 ml of water per day. After plants had the third true leaf (average), the various formulations were applied to the leaves as a fine mist at air temperatures listed in Table 1. Temperatures above 20° C., preferably 25°-30° C., are preferred.
The 1-triacontanol formulation most generally used consisted of a concentrate containing 5 mg of 1-triacontanol dissolved in 1 liter of acetone, with 20 ml of the concentrate being further dissolved to 1 liter with water having a pH between 8 and 10, with over a pH of 11 also being effective. The pH was adjusted with aqueous NaOH and the concentrate added just prior to spraying.
When other plant growth substances were added to the formulations, these were added either to the concentrate in the polar organic solvent or alternatively in the aqueous solution, depending on the solubility of the plant growth substance. All metal salts were added to the water used to spray the 1-triacontanol formulations. After spraying, preferably about four to nine days or more, plants were harvested with roots, and fresh weights were obtained. Plants were then dried in an oven, preferably at a temperature below 100° C., until constant weight was obtained, and dry weight values were obtained for each plot. Subtraction of the dry weights from the fresh weights gave the water uptake weights (water content) of each plot. The weights of the above mentioned seedlings were compared to the control weights to obtain the percent increases.
It is particularly advantageous to arrange each of the potted plants in size range categories corresponding to the number of replications used. For example, if five replications are employed, plants are divided into five size categories, normally measured by the height of the plants. Treatments are then assigned randomly within each block (size category). This removes the variation due to plant size for statistical purposes, as is well practiced in the art. The resulting data is analyzed using any appropriate means, which may include the least significant difference method (L.S.D. method), Duncan's multiple range test, as used here (Biometrics, 11: 1 (1955)), or other means.

[3] = test system: Cucumbers (cv. Straight Eight, Improved White Spine); experiment: Field trial: crop yield; assay type: in vivo; conditions: for Increase (crop yield) / Fresh wt. (crop yield): cv. Improved White Spine, TRIACON-10, 1-triacontanol 0.25 mg/liter, pH 9.8
Description: (§1) Field trials were conducted in Northern Virginia on plots that were replicated at least five items. Plots consisted of single rows of plants in blocks of three or more plots, with treatments being assigned randomly within each block.
Plants were fertilized with the fertilizers described in Table 1, and sprayed at air temperatures listed in the same Table. Spraying was usually avoided under windy conditions to avoid drift.

[4] = test system: Field Corn (cv. Trojan TXS 94); experiment: Field trial: crop yield and seed size; assay type: in vivo; conditions: 1-triacontanol 0.25 mg/liter; for % increase (wt. of seed) / % increase (wt./15 ears) / Wt. of seed / Wt./15 ears: TRIACON-10, pH 10.4; for Percent increases (size of seeds) / Wt. of treated seed: cv. Trojan TXS 94, 1000 seeds; for Wt. of treated seed: control seed 252
Description: as §1
(§2) Plants were fertilized with the fertilizers described in Table 1, and sprayed at air temperatures listed in the same Table. Spraying was usually avoided under windy conditions to avoid drift. In the examples set forth herein, data were treated in a similar manner to those found in the greenhouse trials, with analysis of variance performed for each trial, and the use of a suitable statistical method for the analysis of results, preferably Duncan's multiple range test.

Peas (cv. Dark Skin) = experiment: Field trial: marketable yield; assay type: in vivo; conditions: 1-triacontanol 0.25 mg/liter, pH 8.7; for Fresh wt (marketable yield): per 12 plants per plot
Description: as §1, §2

Radishes (cv. Champion) = experiment: Field trial: crop yield; assay type: in vivo; conditions: 1-triacontanol 0.25 mg/liter, pH 9.7; for Dry wt. (crop yield): per twenty plants, without foliage
Description: as §1, §2

[5] = CaCl2 50.0 mM, IAA 10 μM (Formulation 14)

Q: `CCCCCCCCCCCCCCCCCCCCCCCCCCCCCCO` [1-Triacontanol, 1-triacontanol] was tested. Which “Increase in length "a"” value [1] did it give?
A: 0%

Q: What about the “Increase in length "b"” value [1] of the same compound?
A: +15%

Q: And the “Length "a" (stem to the first leaf)” value ([1]; control 11.5 cm)?
A: 11.5 cm

Q: What about the “Length "b" (total plant length)” value ([1]; control 25.0 cm) of the same compound?
A: 28.8 cm

Q: And the “Percent increases (dry weight)” value ([2]; CaCl2 0.0 mM, no IAA)?
A: -5%

Q: What about the Dry wt. ([2]; CaCl2 0.0 mM, no IAA, control 0.83) of the same compound?
A: 0.79 gm

Q: What about the “Percent increases (dry weight)” value ([2]; CaCl2 1.0 mM, no IAA) of the same compound?
A: +1%

Q: What about the Dry wt. ([2]; CaCl2 1.0 mM, no IAA) of the same compound?
A: 0.84 gm

Q: What about the “Percent increases (dry weight)” value ([2]; CaCl2 3.0 mM, no IAA) of the same compound?
A: -7%

Q: What about the Dry wt. ([2]; CaCl2 3.0 mM, no IAA) of the same compound?
A: 0.77 gm

Q: And the “Percent increases (dry weight)” value ([2]; CaCl2 5.0 mM, no IAA)?
A: +7%

Q: And the Dry wt. ([2]; CaCl2 5.0 mM, no IAA)?
A: 0.89 gm

Q: What about the “Percent increases (dry weight)” value ([2]; CaCl2 10.0 mM, no IAA) of the same compound?
A: +18%

Q: And the Dry wt. ([2]; CaCl2 10.0 mM, no IAA)?
A: 0.98 gm

Q: And the “Percent increases (dry weight)” value ([2]; CaCl2 15.0 mM, no IAA)?
A: +33%

Q: And the Dry wt. ([2]; CaCl2 15.0 mM, no IAA)?
A: 1.10 gm

Q: And the “Percent increases (dry weight)” value [2, 5]?
A: +46%

Q: And the Dry wt. [2, 5]?
A: 1.21 gm

Q: What about the “Increase (crop yield)” value ([3]; CaCl2 5 mM) of the same compound?
A: +88%

Q: What about the “Fresh wt. (crop yield)” value ([3]; CaCl2 5 mM, control 9575 g) of the same compound?
A: 17980 g

Q: And the “Fresh wt. (crop yield)” value ([3]; CaCl2 50 mM)?
A: 11725 g

Q: What about the “Increase (crop yield)” value ([3]; CaCl2 50 mM) of the same compound?
A: +22%

Q: And the “Increase over controls (crop yield)” value ([3]; cv. Straight Eight, previous year, pH 8.7, CaCl2 4.5 mM)?
A: 101%

Q: What about the “% increase (wt. of seed)” value ([4]; CaCl2 1 mM, no IAA) of the same compound?
A: +27%

Q: And the “% increase (wt./15 ears)” value ([4]; CaCl2 1 mM, no IAA)?
A: +33%

Q: And the Wt. of seed ([4]; CaCl2 1 mM, no IAA, control 1740 g)?
A: 2211 g

Q: What about the Wt./15 ears ([4]; CaCl2 1 mM, no IAA, control 1777 g) of the same compound?
A: 2356 g

Q: What about the “% increase (wt. of seed)” value ([4]; CaCl2 3 mM, IAA 0.01 mM) of the same compound?
A: +34%

Q: And the “% increase (wt./15 ears)” value ([4]; CaCl2 3 mM, IAA 0.01 mM)?
A: +46%

Q: What about the Wt. of seed ([4]; CaCl2 3 mM, IAA 0.01 mM) of the same compound?
A: 2342 g

Q: And the Wt./15 ears ([4]; CaCl2 3 mM, IAA 0.01 mM)?
A: 2950 g

Q: And the “Percent increases (size of seeds)” value ([4]; CaCl2 1 mM, no IAA)?
A: +18%

Q: What about the “Wt. of treated seed” value ([4]; CaCl2 1 mM, no IAA) of the same compound?
A: 297 g

Q: What about the “Percent increases (size of seeds)” value ([4]; CaCl2 3 mM, IAA 0.01 mM) of the same compound?
A: +27%

Q: What about the “Wt. of treated seed” value ([4]; CaCl2 3 mM, IAA 0.01 mM) of the same compound?
A: 319 g

Q: And the “Percent increases (marketable yield)” value (Peas (cv. Dark Skin); CaCl2 10 mM, no IAA)?
A: +35%

Q: What about the “Fresh wt (marketable yield)” value (Peas (cv. Dark Skin); CaCl2 10 mM, no IAA, control 59) of the same compound?
A: 78 gm

Q: What about the “Percent increases (marketable yield)” value (Peas (cv. Dark Skin); CaCl2 15 mM, no IAA) of the same compound?
A: +63%

Q: What about the “Fresh wt (marketable yield)” value (Peas (cv. Dark Skin); CaCl2 15 mM, no IAA) of the same compound?
A: 97 gm

Q: And the “Percent increases (marketable yield)” value (Peas (cv. Dark Skin); CaCl2 50 mM, IAA 10 μM)?
A: +32%

Q: What about the “Fresh wt (marketable yield)” value (Peas (cv. Dark Skin); CaCl2 50 mM, IAA 10 μM) of the same compound?
A: 79 gm

Q: What about the “Percent increases (marketable yield)” value (Peas (cv. Dark Skin); CaCl2 75 mM, IAA 10 μM) of the same compound?
A: +69%

Q: And the “Fresh wt (marketable yield)” value (Peas (cv. Dark Skin); CaCl2 75 mM, IAA 10 μM)?
A: 100 gm

Q: And the Percent increases (crop yield) (Radishes (cv. Champion); CaCl2 10 mM, no IAA)?
A: 32%

Q: And the “Dry wt. (crop yield)” value (Radishes (cv. Champion); CaCl2 10 mM, no IAA, control 93 g)?
A: 123 g

Q: What about the “Percent increases (crop yield)” value (Radishes (cv. Champion); CaCl2 50 mM, IAA 10 μM) of the same compound?
A: +69%

Q: And the “Dry wt. (crop yield)” value (Radishes (cv. Champion); CaCl2 50 mM, IAA 10 μM)?
A: 157 g
